Test [1] can be described thus: Luminescence Cell-Based Dose Retest to Confirm Inhibitors of Cancer Stem Cells. [Related pubchem assays (depositor defined):AID2717, AID2721]. The class given is functional. Particulars: Homo sapiens.
Another test can be described thus: cells. The class given is functional.
The next test concerns the target T1, Cytochrome P450 1A2 (Homo sapiens, UniProt P05177).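 Note: PubChem cytochrome P450 panel assay, CYP1A2 panel member.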
T1 sequence (P05177 whole entry): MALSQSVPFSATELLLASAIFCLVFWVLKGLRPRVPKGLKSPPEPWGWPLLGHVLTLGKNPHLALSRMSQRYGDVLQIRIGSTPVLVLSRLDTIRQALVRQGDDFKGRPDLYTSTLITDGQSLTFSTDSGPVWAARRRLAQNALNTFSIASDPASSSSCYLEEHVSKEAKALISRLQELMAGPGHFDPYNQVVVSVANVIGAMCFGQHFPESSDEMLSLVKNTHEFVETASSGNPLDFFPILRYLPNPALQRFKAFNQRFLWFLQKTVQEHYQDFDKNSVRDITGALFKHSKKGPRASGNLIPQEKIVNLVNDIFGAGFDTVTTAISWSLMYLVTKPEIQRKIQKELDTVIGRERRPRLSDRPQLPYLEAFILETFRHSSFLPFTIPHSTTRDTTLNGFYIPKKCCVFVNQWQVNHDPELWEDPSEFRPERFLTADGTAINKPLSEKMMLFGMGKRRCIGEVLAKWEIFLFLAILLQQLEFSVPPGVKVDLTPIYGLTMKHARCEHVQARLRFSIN

For another test, the target named is Cytochrome P450 2C19 (Homo sapiens, UniProt P33261). Nature of the test: Cytochrome panel assay with activity outcomes. Panel member name: p450-cyp2c19 Compounds with AC50 equal or less than 10 uM are considered active. The class given is functional. The conditions noted are these: read-out: AC50.
Test [2] in a line: luciferase reporter signal suppression in cells – H4 neuroglioma cells, luminescence, dose response (AID 1990). The class given is functional, cell-based.
Test [3] in a line: Luminescence Cell-Based Dose Response HTS to Identify Inhibitors of 5'UTR Stem-Loop Driven Prion Protein mRNA Translation in H4 Neuroglioblastoma Cells. [Related pubchem assays: 1827 (Project Summary), 1813 (Primary HTS)]. The class given is functional.
Test [4] in a line: alpha-synuclein stem-loop luciferase translation blockers – H4 neuroglioma cells, luminescence, confirmation (AID 1988). The class given is functional, cell-based.
Another test has as its target Cytochrome P450 3A4 (Homo sapiens, UniProt P08684).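 Note: CYP3A4 tested as one member of a cytochrome P450 panel screen.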
The subject of test [5] is BJ. Nature of the test: BJ-TERT-LT-ST fibroblast viability loss – cell-based, RAS-independent, luminescence, dose response (AID 1935).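 Note: BJ fibroblasts immortalized with TERT plus LT and ST oncogenes.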 The class given is functional. The conditions noted are these: Homo sapiens.
Test [6] is described as follows: DRD fibroblast viability loss – cell-based, non-viral oncogenic, luminescence, dose response (AID 1934). The class given is functional. Particulars: Homo sapiens.
Test [7] concerns BJ. Nature of the test: BJ-TERT fibroblast viability loss – cell-based, RAS-independent, luminescence, dose response (AID 1933). The class given is functional. Particulars: Homo sapiens.
Test [8] has as its target T2, Rac GTPase-activating protein 1 (Homo sapiens, UniProt Q9H0H5).
T2 sequence (Q9H0H5 whole entry): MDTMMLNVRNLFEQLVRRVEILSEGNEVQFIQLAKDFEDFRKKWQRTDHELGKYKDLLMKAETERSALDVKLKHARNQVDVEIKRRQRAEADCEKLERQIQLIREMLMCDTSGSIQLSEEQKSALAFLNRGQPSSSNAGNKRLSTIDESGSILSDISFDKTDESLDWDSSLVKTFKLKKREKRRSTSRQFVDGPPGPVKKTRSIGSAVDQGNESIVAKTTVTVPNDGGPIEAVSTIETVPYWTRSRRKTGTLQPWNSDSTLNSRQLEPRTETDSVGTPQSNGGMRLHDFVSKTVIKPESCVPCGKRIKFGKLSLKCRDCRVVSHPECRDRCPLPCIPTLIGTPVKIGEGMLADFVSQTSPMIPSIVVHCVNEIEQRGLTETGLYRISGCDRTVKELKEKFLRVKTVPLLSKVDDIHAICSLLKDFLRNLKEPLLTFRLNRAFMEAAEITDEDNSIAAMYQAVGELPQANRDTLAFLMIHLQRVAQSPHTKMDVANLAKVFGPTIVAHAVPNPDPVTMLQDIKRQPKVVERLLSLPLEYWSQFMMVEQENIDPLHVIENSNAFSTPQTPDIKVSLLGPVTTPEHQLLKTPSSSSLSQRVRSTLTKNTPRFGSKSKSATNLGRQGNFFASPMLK
Nature of the test: blockers of MgcRacGAP-driven Rac1 GTP hydrolysis – biochemical, ADP Hunter fluorescence, primary and confirmatory, confirmation (AID 624330). The class given is functional.

Test [9] deals with BJ. Description: cells. The class given is functional, cell-based. Particulars: Homo sapiens.
The nature of test [10]: Luminescence Cell-Based Dose Response HTS to Identify Activators of Luciferase Translation or Activity in H4 […] Cells. [Related pubchem assays: 1829 (Project Summary), 1814 (Primary HTS)]. The class given is functional.
The subject of another test is H4. Description: Luminescence Cell-Based Dose Response HTS to Identify Activators of 5'UTR Stem-Loop Driven Prion Protein mRNA Translation in H4 Neuroglioblastoma Cells. [Related pubchem assays: 1829 (Project Summary), 1814 (Primary HTS)]. Particulars: Homo sapiens. The class given is functional.
The next test deals with Cytochrome P450 2C9 (Homo sapiens, UniProt P11712).

“And” between values parts separate entries of the source, which are not always exact repeats. Identical values can stand only once. The source made the active and inactive calls.

Cytochrome P450 2C9, sequence (P11712 whole entry): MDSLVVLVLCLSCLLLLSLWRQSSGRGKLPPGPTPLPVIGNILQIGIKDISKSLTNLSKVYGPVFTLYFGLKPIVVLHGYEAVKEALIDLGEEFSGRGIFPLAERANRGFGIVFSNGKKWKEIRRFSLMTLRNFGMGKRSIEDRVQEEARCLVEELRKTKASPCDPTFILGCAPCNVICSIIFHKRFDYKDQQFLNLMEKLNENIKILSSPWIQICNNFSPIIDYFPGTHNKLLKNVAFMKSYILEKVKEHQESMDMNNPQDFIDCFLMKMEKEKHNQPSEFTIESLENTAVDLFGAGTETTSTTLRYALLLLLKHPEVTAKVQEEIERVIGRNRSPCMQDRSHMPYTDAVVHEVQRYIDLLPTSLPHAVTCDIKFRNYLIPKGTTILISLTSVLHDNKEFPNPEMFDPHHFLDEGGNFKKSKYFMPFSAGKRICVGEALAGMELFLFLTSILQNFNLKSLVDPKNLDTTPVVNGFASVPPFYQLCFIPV
Cytochrome P450 3A4, sequence (P08684 whole entry): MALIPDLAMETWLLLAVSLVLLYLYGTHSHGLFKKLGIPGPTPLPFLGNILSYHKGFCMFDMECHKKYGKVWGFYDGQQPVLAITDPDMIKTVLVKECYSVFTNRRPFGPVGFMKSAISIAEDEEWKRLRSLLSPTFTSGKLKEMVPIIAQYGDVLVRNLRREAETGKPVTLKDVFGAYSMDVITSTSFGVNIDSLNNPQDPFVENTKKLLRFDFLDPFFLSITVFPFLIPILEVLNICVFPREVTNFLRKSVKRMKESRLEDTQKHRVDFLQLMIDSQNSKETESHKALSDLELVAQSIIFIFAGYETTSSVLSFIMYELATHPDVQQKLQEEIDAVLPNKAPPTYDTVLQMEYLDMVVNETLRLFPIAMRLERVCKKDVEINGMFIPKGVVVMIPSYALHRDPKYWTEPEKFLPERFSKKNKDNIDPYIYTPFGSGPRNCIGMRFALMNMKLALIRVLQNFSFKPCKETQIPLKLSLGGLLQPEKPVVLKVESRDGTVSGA
Cytochrome P450 2C19, sequence (P33261 whole entry): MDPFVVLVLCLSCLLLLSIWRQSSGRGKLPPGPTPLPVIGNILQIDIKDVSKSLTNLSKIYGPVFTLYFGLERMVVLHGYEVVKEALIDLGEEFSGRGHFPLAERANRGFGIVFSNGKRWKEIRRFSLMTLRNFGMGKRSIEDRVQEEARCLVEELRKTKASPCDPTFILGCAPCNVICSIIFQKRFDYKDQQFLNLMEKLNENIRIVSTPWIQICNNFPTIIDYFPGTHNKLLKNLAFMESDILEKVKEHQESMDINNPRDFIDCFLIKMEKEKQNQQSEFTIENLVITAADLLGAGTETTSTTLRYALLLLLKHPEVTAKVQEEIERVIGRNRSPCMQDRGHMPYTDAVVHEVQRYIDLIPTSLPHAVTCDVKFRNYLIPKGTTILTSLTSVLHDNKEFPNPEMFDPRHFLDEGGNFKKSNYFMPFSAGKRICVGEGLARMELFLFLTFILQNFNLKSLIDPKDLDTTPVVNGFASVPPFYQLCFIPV

The AC50 is the concentration giving half of the maximal activity seen. `CCOC(=O)C1=C(C)N=C(C)/C(=C(/O)OCC)C1c1ccccc1/C=C/C(=O)OC(C)(C)C` (stereo unspecified): the AC50 in test [1] was 3.4 µM (active).
Same read-out and setting: as for `Cc1cc(C)nc(NC(=NC(=O)Nc2ccc(Cl)cc2)NCCc2c[nH]c3ccccc23)n1`, the figure is 2.28 µM (active).
As usually defined, the IC50 is the concentration that gives 50% inhibition. Regarding `CCc1ccc(C(=O)COC(=O)c2ccc(Cl)nc2)cc1`, the concentration for half-maximal inhibition (IC50) in “cells” is > 50 µM (active).
Turning to `O=C(O)c1cc(-c2ccc(-c3ccccc3)cc2)nc2cc3ccccc3cc12`, the AC50 is 0.794 µM (inconclusive) at Cytochrome P450 1A2 and 3.98 µM (inconclusive) on Cytochrome P450 2C19.
As a reminder, the EC50 is the concentration giving half of the maximal effect. For the compound `COc1ccc(-c2nc(CS(=O)(=O)CC(=O)NCCCc3ccccc3)c(C)o2)cc1`, the EC50 in test [2] is > 120 µM (not active); in [3], > 120 µM (not active); in test [4], 14.5 µM (active).
For the compound `COC(=O)C1=C(C)N=C(C)/C(=C(/O)O[C@@H]2CCCN(Cc3ccccc3)C2)[C@@H]1c1cccc([N+](=O)[O-])c1`, the EC50 in test [2] was 12 µM (active); in test [3], 14.6 µM (active); in test [4], 9.3 µM (active).
On to `O=C(CN1CCN(c2ccc(Cl)cc2)CC1)Nc1ccc(F)c(F)c1`, for which the figures for the half-maximal activity concentration (AC50) at Cytochrome P450 1A2 and at Cytochrome P450 3A4 were 14.1 µM (inconclusive) and 25.1 µM (inconclusive), respectively.
Take `Cc1ccc(/C=C2/C(=O)ON=C2c2ccccc2)o1`: the EC50 in the test with BJ [5] is > 150 µM (inconclusive); in [6], 12.2 µM (active); in the test with BJ [7], 12.8 µM (active); in the test on BJ [9], 18.3 µM (active). In addition, the IC50 in test [8] was 36.9 µM (active).
Turning to `Cc1ccc(NC(=O)C(C)N2C(=O)C3C4CC(C(Br)C4Br)C3C2=O)cc1` (stereo unspecified), the AC50 on Cytochrome P450 1A2 is 25.1 µM (inconclusive).
In the case of `Cc1ccc(NC(=O)c2ccc(OC(=O)CCN3C(=O)c4ccccc4C3=O)cc2)cc1`, the EC50 in [10] is 37.8 µM (active).
With `COc1ccccc1N1CCN(C(=O)CCc2nnc3ccc(N4CCC(C)CC4)nn23)CC1`, the figures for the concentration giving a half-maximal response (EC50) in [2], in [3] and in test [4] were 11.2 µM (active), > 120 µM (not active) and 17.3 µM (active), respectively.
In the case of `O=C1NCCc2c1[nH]c1ccc([N+](=O)[O-])cc21`, the values for the 50% effective concentration (EC50) in test [2], in [3] and in test [4] were 12.9 µM (active), 15.6 µM (active) and 16.3 µM (active), respectively.
As for `COc1cccc(Cn2c(=O)c(-c3cn(C)c4ccccc34)nc3cnc(N4CCOCC4)nc32)c1`, the AC50 on Cytochrome P450 1A2 is 25.1 µM (inconclusive).
Regarding `CCOC(=O)COc1ccc(C(=O)Nc2cccc(Cl)c2C)cc1`, the IC50 in the test “cells” is 0.52 µM (active).
Take `CCc1nc(SCC(=O)NC2CC2)c2c(C)c(C)sc2n1`: the EC50 in test [2] was 16.7 µM (active); in [3], > 120 µM (not active); in test [4] it was > 120 µM (not active).
On to `Cc1nnc(S)n1/N=C/c1ccc(OCc2ccc(Cl)cc2Cl)cc1`, for which the concentration for half-maximal inhibition (IC50) in the test “cells” was 43.8 µM (active).
Turning to `O=C(Cc1ccccc1)NC(NCCc1ccccc1)C(Cl)(Cl)Cl` (stereo unspecified), the AC50 at Cytochrome P450 1A2 was 25.1 µM (inconclusive).
Consider `COc1ccccc1N1CCN(C(=O)c2ccc([N+](=O)[O-])s2)CC1`, for which the IC50 in “cells” was 46.4 µM (active).
As to `COc1ccc(C(=O)O/N=C/c2c(C(F)(F)F)nn(C)c2SCc2ccccc2Cl)cc1`, the EC50 is 17 µM (active) in test [2], 12.8 µM (active) in [3] and 12 µM (active) in test [4].
`Cc1c(C)c2ccc(OCC(=O)Nc3cccnc3)c(C)c2oc1=O`: the figures for the EC50 (in test [10]; in the test on H4) were 22 µM (active) and 16 µM (active), respectively.
Take `O=S(=O)(O)c1ccc(/N=N\c2ccc3c(S(=O)(=O)O)cccc3c2O)c2ccccc12`: the AC50 on Cytochrome P450 1A2 was 3.16 µM (inconclusive).
On to `CC(C)OCCCNc1nc2c(c(=O)n(Cc3ccccc3F)c(=O)n2C)n1C`, for which the figures for the EC50 in test [2], in [3] and in test [4] were 16.8 µM (active), > 120 µM (not active) and > 120 µM (not active), respectively.
In the case of `CN(CCc1ccc(Cl)c(Cl)c1)[C@H]1CCCC[C@H]1N1CCCC1`, the AC50 on Cytochrome P450 1A2 was 31.6 µM (inconclusive).
For the compound `N#CC(C#N)=Cc1ccc([N+](=O)[O-])c(O)c1`, the values for the AC50 on Cytochrome P450 1A2, on Cytochrome P450 3A4 and at Cytochrome P450 2C9 were 31.6 µM (inconclusive), 1.58 µM (inconclusive) and 31.6 µM (inconclusive), respectively.
As for `Cc1cc(C)c(NC(=O)CSCc2c(C)noc2C)c(C)c1`, the AC50 in test [1] was > 195 µM (inactive).
Same read-out and setting: as for `Cc1ccc(NC(=O)/C=C/c2ccc3c(c2)OCO3)nc1`, the figure is 1.08 µM (active); as for `COc1ccc2sc(-c3ccc(N(C)C)cc3)c(C#Cc3cncn3C)c2c1`, 1.11 µM (active).
In the case of `CCn1cc(C(=O)O)c(=O)c2cc3c(cc21)OCO3` [OXOLINIC ACID], the AC50 on Cytochrome P450 1A2 was 5.01 µM (inconclusive) and 2.51 µM (inconclusive).
For `c1cnc(N2CC[C@@]3(CCCNC3)C2)nc1`, the AC50 at Cytochrome P450 1A2 is 25.1 µM (inconclusive); on Cytochrome P450 3A4, 31.6 µM (inconclusive).
The like results for `CCNc1ncc2nc(-c3ccc(OC)cc3)c(=O)n(CCC#N)c2n1` were, in that order, 10 µM (inconclusive) and 15.8 µM (inconclusive).
Consider `COc1ccc(NN/C=C2/C(=O)NC(=O)N(c3ccc(C)c(C)c3)C2=O)cc1`, for which the AC50 in [1] was 0.716 µM (active). In addition, the EC50 in test [2] is 15.2 µM (active); in test [3] it was > 120 µM (not active); in test [4], > 120 µM (not active).
As for `CCc1noc(C)c1C(=O)Nc1nc(-c2cc(C)ccc2C)c(C)s1`, the AC50 is 15.8 µM (inconclusive) on Cytochrome P450 1A2, 7.08 µM (inconclusive) on Cytochrome P450 2C19 and 7.94 µM (inconclusive) on Cytochrome P450 2C9.
On to `CC(C)c1ccc(C2C3=C(O)OCC3=Nc3cc4c(cc32)OCO4)cc1` (stereo unspecified), for which the EC50 in the test on BJ [5] is 0.386 µM (inconclusive); in test [6], 0.88 µM (active); with BJ [7], 0.746 µM (inconclusive); with BJ [9], 5.49 µM (inconclusive).
Regarding `COc1cc(OC)c(OC)cc1CN1CCN(C(=O)c2cccc3ccccc23)CC1`, in test [8], the IC50 was 244 µM (active).
Consider `O=C1CC(N(O)C2CC(=O)N(Cc3ccccc3)C2=O)C(=O)N1Cc1ccccc1` (stereo unspecified), for which the results for the AC50 at Cytochrome P450 1A2, at Cytochrome P450 2C19 and on Cytochrome P450 2C9 were 39.8 µM (inconclusive), 2 µM (inconclusive) and 11.2 µM (inconclusive), respectively.
For `COc1ccc2cc(-c3csc(-c4cccnc4)n3)ccc2c1`, the EC50 was 0.108 µM (inconclusive) in test [10] and 22 µM (active) in the test on H4.
As for `CN1CCN(CC(=O)Nc2ccc([N+](=O)[O-])cc2C(=O)c2ccccc2)CC1`, the EC50 (in the test with BJ [5]; in [6]; in the test on BJ [7]; in the test on BJ [9]) was > 150 µM (not active) each time.
For `COc1ccccc1-n1c(SCC(=O)N2CCCC2)nc2cccnc21`, the AC50 was 0.1 µM (inconclusive) on Cytochrome P450 1A2 and 1 µM (inconclusive) on Cytochrome P450 2C9.
The like results for `COc1ccc2c(CC(=O)NCC3CCC(C(=O)O)CC3)cc(=O)oc2c1` (stereo unspecified) were, in that order, 22.4 µM (inconclusive) and 15.8 µM (inconclusive).
With `COc1ccc(-c2c(-c3cc(OC)cc(OC)c3)n(C)c3ccc(-c4cc(F)cc(OC)c4)cc23)cc1`, the AC50 in test [1] was > 195 µM (inactive).

(Values after ChEMBL document CHEMBL1201862, “PubChem BioAssay data set” (2004).)
